Measurements reported in patent US5945436A, “Pyridylmethyl nitriles, amides and thioamides useful as fungicides” (Uniroyal Chemical Company, Inc., priority 1997, dated 1999).

Experiments:
[1] = system: Erysiphe graminis; assay: Powdery mildew of barley, systemic root uptake (BMS); format: in vivo; details: 45 ml of 250 mg/l, 8 days after inoculation
Procedure, shortened: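 Pot soil of barley (BMS) and cucumber (CMS) plants was drenched with 45 ml of a 250 mg/l acetone/Tween 20 aqueous emulsion, with untreated plants as controls. Disease was scored on a rating scale that included intermediate grades.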

[2] = system: Cercosporidium personatum; assay: Fungal germination and growth, treated disc on agar, scored (CER PER); format: cell-based; parameters: key: 100: Complete inhibition of germination and growth.; 80: Nearly complete inhibition but some growth.; 50: Partial inhibition of growth or, early complete inhibition but later growth begins.; 20: Some inhibition of growth, but not significant.; 0: No inhibition of growth; details: disc dipped in 500 mg/l, 29° C., numerical score 0-100, spore suspension
Source text: Filter paper discs, each 11 mm. in diameter, were dipped in each of the test solutions. The discs were allowed to air dry to drive off the acetone solvent. A number of untreated discs were used as controls. The treated and untreated discs were then placed on agar plates and one of the following fungus species: Septoria nodorum (SEP NOD), Botrytis cinerea (BOT CIN), Fusarium oxysporum (FUS OXY), Pythium ultimum ([…]), Rhizoctonia solani (RHI SOL), Colletotrichum gossypii (COL GOS), and Scierotinia minor (SCL MIN), was added to the center of each disc in the form of a culture plug with the fungus mat in contact with the paper of the test disc. Cercosporidium personatum (CER PER), was added to discs as a spore suspension (20,000 spores/ml) to the disc (two drops of spore suspension per disc), rather than a mycelial culture plug. The plates were then incubated at 29° C. in an oven. In the case of the Cercosporidium personatum (CER PER) fungi, scoring was done on a numerical basis as follows: 100=Complete inhibition of germination and growth. 80=Nearly complete inhibition but some growth. 50=Partial inhibition of growth or, early complete inhibition but later growth begins. 20=Some inhibition of growth, but not significant. 0=No inhibition of growth. The results of all the above tests appear in Table III below under the headings "SEP NOD," "BOT CIN," "FUS OXY," "[…]" "COL GOS" and "CER PER".

[3] = system: Colletotrichum gossypii; assay: Fungal growth inhibition, treated disc on agar (COL GOS); format: cell-based; details: disc dipped in 500 mg/l, 29° C.; for inhibition at 500 µg/mL: Colletotrichum gossypii, read-out: Percent Growth Inhibition, COL GOS
Experimental: (§1) The treated and untreated discs were then placed on agar plates and one of the following fungus species: Septoria nodorum (SEP NOD), Botrytis cinerea (BOT CIN), Fusarium oxysporum (FUS OXY), Pythium ultimum (PYT ULT), Rhizoctonia solani (RHI SOL), Colletotrichum gossypii (COL GOS), and Scierotinia minor (SCL MIN), was added to the center of each disc in the form of a culture plug with the fungus mat in contact with the paper of the test disc. Cercosporidium personatum (CER PER), was added to discs as a spore suspension (20,000 spores/ml) to the disc (two drops of spore suspension per disc), rather than a mycelial culture plug. The plates were then incubated at 29° C. in an oven.
(§2) With the exception of the discs containing Cercosporidium personatum, the discs were evaluated by first measuring the radius from the center of the fungus colony on the treated discs and on the untreated discs. Percent growth inhibition of each of the compounds tested was determined as a function of the difference between the radius of the fungus colony on the treated disc versus the radius of the fungus colony on the untreated disc.

[4] = system: Scierotinia minor; assay: Fungal growth inhibition, treated disc on agar (SCL MIN); format: cell-based; details: disc dipped in 500 mg/l, 29° C.; for inhibition at 500 µg/mL: read-out: Percent Growth Inhibition, SCL MIN
Experimental: as §1, §2

[5] = system: Fusarium oxysporum; assay: Fungal growth inhibition, treated disc on agar (FUS OXY); format: cell-based; details: disc dipped in 500 mg/l, 29° C.; for inhibition at 500 µg/mL: Fusarium oxysporum, read-out: Percent Growth Inhibition, FUS OXY
[6] = system: Erysiphe polygoni; assay: Powdery mildew on pinto bean, foliar application (ERY POL); format: in vivo; details: similar procedure as barley (1,000 mg/l); for pest or weed control at 1000 µg/mL: Erysiphe polygoni, read-out: Percent Reduction of Disease, ERY POL
Procedure, shortened: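 Pinto bean plants sprayed with compound emulsion (acetone or inert solvent, TWEEN 20, water) at 1,000 mg/l, or left unsprayed, dried, then inoculated with Erysiphe polygoni spores in a 21° C greenhouse. Disease scored; percent control computed against untreated controls.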

[7] = system: Pythium ultimum; assay: Fungal growth inhibition, treated disc on agar (PYT ULT); format: cell-based; details: disc dipped in 500 mg/l, 29° C.; for inhibition at 500 µg/mL: Globisporangium ultimum, read-out: Percent Growth Inhibition, PYT ULT
Experimental: as §1, §2

Compound | Percent Reduction of Disease, BMS [1] [%] | CER PER inhibition score [2] | inhibition at 500 µg/mL [3] [%] | inhibition at 500 µg/mL [4] [%] | inhibition at 500 µg/mL [5] [%] | pest or weed control at 1000 µg/mL [6] [%] | inhibition at 500 µg/mL [7] [%] | Percent Growth Inhibition, COL GOS [3] [%] | Percent Growth Inhibition, SCL MIN [4] [%] | Percent Growth Inhibition, PYT ULT [7] [%] | Percent Growth Inhibition, FUS OXY [5] [%] | Percent Reduction of Disease, ERY POL [6] [%]
CCCCCCC(C#N)(CCc1ccc(OCC)cc1)c1cccnc1 (stereo not drawn) [Compound 44] | 0 | 100 | 100 | 100 | 8 | 90 | 89 | – | – | – | – | –
CCCCCCC(C#N)(CCc1ccc(F)cc1)c1cccnc1 (stereo not drawn) [Compound 45] | 0 | 100 | 100 | 100 | 14 | 90 | 89 | – | – | – | – | –
CCCC(C#N)(CCc1ccc(OCC)cc1)c1cccnc1 (stereo not drawn) [Compound 46] | 0 | 0 | 100 | 100 | 100 | 90 | 59 | – | – | – | – | –
CC(C)=CCC(C#N)(CCc1ccc(F)cc1)c1cccnc1 (stereo not drawn) [Compound 47] | 0 | 0 | 100 | 100 | 50 | 90 | 100 | – | – | – | – | –
COc1ccc(CCC(C#N)(CC=C(C)C)c2cccnc2)cc1 (stereo not drawn) [Compound 48] | 0 | 50 | 100 | 100 | 100 | 90 | 53 | – | – | – | – | –
CC(C)CCC(C#N)(CCc1ccc(F)cc1)c1cccnc1 (stereo not drawn) [Compound 49] | 0 | 0 | – | – | 65 | 90 | – | 100 | 100 | 76 | – | –
COCC(C#N)(CCc1ccc(OC)cc1)c1cccnc1 (stereo not drawn) [Compound 50] | 0 | 0 | 100 | 100 | 100 | 100 | 10 | – | – | – | – | –
COCC(C#N)(CCc1ccc(F)cc1)c1cccnc1 (stereo not drawn) [Compound 51] | 90 | 100 | 100 | 100 | 100 | 85 | 0 | – | – | – | – | –
N#CC(CCc1ccc(F)cc1)(CC(F)(F)F)c1cccnc1 (stereo not drawn) [Compound 52] | 100 | 100 | 100 | 100 | 100 | 100 | 0 | – | – | – | – | –
N#CC(CCF)(CCc1ccc(F)cc1)c1cccnc1 (stereo not drawn) [Compound 53] | 100 | 0 | 100 | 100 | 100 | 90 | 5 | – | – | – | – | –
CCCCOc1ccc(CCC(C#N)(CCCC)c2cccnc2)cc1 (stereo not drawn) [Compound 54] | 0 | 0 | 100 | 100 | 100 | 90 | 5 | – | – | – | – | –
CC(C)CCC(C#N)(CCc1ccc(F)cc1)c1cccnc1 (stereo not drawn) [Compound 55] | 75 | 0 | – | – | – | – | – | 30 | 55 | 20 | 65 | 85
